This note sets out measurements from patent US20030229067A1, “Pyrrolopyrimidine A2b selective antagonist compounds, their synthesis and use” (priority 2001, published 2003).

As usually defined, the melting point is the temperature of the solid-liquid transition. `CC(=O)NCCNc1nc(-c2ccccc2)nc2[nH]c(C(=O)N3C[C@@H](C)NC[C@@H]3C)cc12` (relative stereo) [26.31, N-{2-[6-(trans-2,5-Dimethylpiperazine-1-carbonyl)-2-phenyl-7H-pyrrolo[2,3-d]pyrimidin-4-ylamino]-ethyl}-acetamide] showed a melting point of 120 to 125 °C.
Under `COC(=O)c1cccc(OCc2cc3c(NCCNC(C)=O)nc(-c4ccccc4)nc3[nH]2)c1` [9.19, 3-[4-(2-Acetylaminoethylamino)-2-phenyl-7H-pyrrolo[2,3-d]pyrimidin-6-ylmethoxy]-benzoic acid methyl ester] stands 80 to 85 °C (dec.).
Under `CC(=O)NCCNc1nc(-c2ccccc2)nc2[nH]c(/C=N/OCc3ccccc3)cc12` [22.1, N-{2-[6-(Benzyloxyiminomethyl)-2-phenyl-7H-pyrrolo[2,3-d]pyrimidin-4-ylamino]-ethyl}-acetamide] stands 83 to 87 °C (dec.); under `CC(=O)NCCNc1nc(-c2ccccc2)nc2[nH]c(C(=O)N3CCOCC3)cc12` [26.1, N-{2-[6-(Morpholine-4-carbonyl)-2-phenyl-7H-pyrrolo[2,3-d]pyrimidin-4-ylamino]-ethyl}-acetamide], 250 °C.
Under `CC(=O)NCCNc1nc(-c2ccccc2)nc2[nH]c(C(=O)Nc3ccc(Oc4ccccc4)cc3)cc12` [26.2, 4-(2-Acetylaminoethylamino)-2-phenyl-7H-pyrrolo[2,3-d]pyrimidine-6-carboxylic acid (4-phenoxyphenyl)-amide] stands 250 to 257 °C (dec.).
Regarding `CC(=O)NCCNc1nc(-c2ccccc2)nc2[nH]c(C(=O)N3CCC(O)(C(C)C)CC3)cc12` [26.4, N-{2-[6-(4-Hydroxy4-isopropylpiperidine-1-carbonyl)-2-phenyl-7H-pyrrolo[2,3-d]pyrimidin-4-ylamino]-ethyl}-acetamide], the melting point is 140 to 145 °C (dec.).
`CC(=O)NCCNc1nc(-c2ccccc2)nc2[nH]c(C(=O)N3CCC(O)(c4ccccc4)CC3)cc12` [26.7, N-{2-[6-(4-Hydroxy4-phenylpiperidine-1-carbonyl)-2-phenyl-7H-pyrrolo[2,3-d]pyrimidin-4-ylamino]-ethyl}-acetamide]: the melting point was 158 to 162 °C (dec.).
Under `CC(=O)NCCNc1nc(-c2ccccc2)nc2[nH]c(C(=O)N3CCC(O)(Cc4ccccc4)CC3)cc12` [26.8, N-{2-[6-(4-Benzyl-4-hydroxypiperidine-1-carbonyl)-2-phenyl-7H-pyrrolo[2,3-d]pyrimidin-4-ylamino]-ethyl}-acetamide] stands 140 to 145 °C (dec.).
Under `NC(=O)CNc1nc(-c2ccccc2)nc2[nH]c(C(=O)N3CCC(O)(c4ccc(Cl)cc4)CC3)cc12` [26.9, 2-{6-[4-(4-Chlorophenyl)-4-hydroxypiperidine-1-carbonyl]-2-phenyl-7H-pyrrolo[2,3-d]pyrimidin-4-ylamino}-acetamide] stands 200 to 205 °C (dec.); under `CC(=O)NCCNc1nc(-c2ccccc2)nc2[nH]c(C(=O)N3CCC(O)(c4cccc(C(F)(F)F)c4)CC3)cc12` [26.10], 145 to 150 °C; under `CC(=O)NCCNc1nc(-c2ccccc2)nc2[nH]c(C(=O)N3CCN(CCc4ccccc4)CC3)cc12` [26.11, N-{2-[6-(4-Phenethylpiperazine-1-carbonyl)-2-phenyl-7H-pyrrolo[2,3-d]pyrimidin-4-ylamino]-ethyl}-acetamide], 226 to 228 °C.
Under `CC(=O)NCCNc1nc(-c2ccccc2)nc2[nH]c(C(=O)N3CCN(CCCN4CCOCC4)CC3)cc12` [26.12, N-(2-{6-[4-(3-Morpholin-4-ylpropyl)-piperazine-1-carbonyl]-2-phenyl-7H-pyrrolo[2,3-d]pyrimidin-4-ylamino}-ethyl)-acetamide] stands 225 to 230 °C (dec.); under `CC(=O)NCCNc1nc(-c2ccccc2)nc2[nH]c(C(=O)N3CC=C(c4ccc(Cl)cc4)CC3)cc12` [26.13, N-(2-{6-[4-(4-Chlorophenyl)-3,6-dihydro-2H-pyridine-17carbonyl]-2-phenyl-7H-pyrrolo[2,3-d]pyrimidin-4-ylamino}-ethyl)-acetamide], 172 to 175 °C; under `CC(=O)NCCNc1nc(-c2ccccc2)nc2[nH]c(C(=O)N3CCN(Cc4ccccc4)CC3)cc12` [26.14, N-{2-[6-(4-Benzylpiperazine-1-carbonyl)-2-phenyl-7H-pyrrolo[2,3-d]pyrimidin-4-ylamino]-ethyl}-acetamide], 235 to 240 °C (dec.).
The compound `NC(=O)CNc1nc(-c2ccccc2)nc2[nH]c(C(=O)N3CCN(CCCc4ccccc4)CC3)cc12` [26.15, 2-{2-Phenyl-6-[4-(3-phenylpropyl)-piperazine-1-carbonyl]-7H-pyrrolo[2,3-d]pyrimidin-4-ylamino}-acetamide] yielded a melting point of 213 to 217 °C.
Under `CC(=O)NCCNc1nc(-c2ccccc2)nc2[nH]c(C(=O)N3CCN(CCOc4ccc(Cl)cc4)CC3)cc12` [26.16, N-[2-(6-{4-[2-(4-Chlorophenoxy)-ethyl]-piperazine-1-carbonyl}-2-phenyl-7H-pyrrolo[2,3-d]pyrimidin-4-ylamino)-ethyl]-acetamide] stands 227 to 228 °C; under `CC(=O)NCCNc1nc(-c2ccccc2)nc2[nH]c(C(=O)NC3CC4CCC3C4)cc12` (centres unmarked) [26.17], 280 to 285 °C (dec.); under `CC(=O)NCCNc1nc(-c2ccccc2)nc2[nH]c(C(=O)N3CCC(O)(c4ccc(F)cc4)CC3)cc12` [26.18, N-(2-{6-[4-(4-Fluorophenyl)4-hydroxypiperidine-1-carbonyl]-2-phenyl-7H-pyrrolo[2,3-d]pyrimidin-4-ylamino}-ethyl)-acetamide], 150 to 153 °C.
Under `CC(=O)NCCNc1nc(-c2ccccc2)nc2[nH]c(C(=O)N3CCC(C#N)(c4ccccc4)CC3)cc12` [26.19, N-{2-[6-(4-Cyano-4-phenylpiperidine-1-carbonyl)-2-phenyl-7H-pyrrolo[2,3-d]pyrimidin-4-ylamino]-ethyl}-acetamide] stands 150 to 155 °C (dec.); under `CC(=O)NCCNc1nc(-c2ccccc2)nc2[nH]c(C(=O)Nc3cccc(Oc4ccccc4)c3)cc12` [26.20, 4-(2-Acetylaminoethylamino)-2-phenyl-7H-pyrrolo[2,3-d]pyrimidine-6-carboxylic acid (3-phenoxyphenyl)-amide], 140 to 142 °C.
Under `CC(=O)NCCNc1nc(-c2ccccc2)nc2[nH]c(C(=O)N3CCN(CC#Cc4ccccc4)CC3)cc12` [26.21, N-(2-{2-Phenyl-6-[4-(3-phenylprop-2-ynyl)-piperazine-1-carbonyl]-7H-pyrrolo[2,3-d]pyrimidin-4-ylamino}-ethyl)-acetamide] stands 213 to 215 °C; under `CC(=O)NCCNc1nc(-c2ccccc2)nc2[nH]c(C(=O)N3C[C@@H](C)N[C@@H](C)C3)cc12` [26.22, N-{2-[6-(cis-3,5-Dimethylpiperazine-1-carbonyl)-2-phenyl-7H-pyrrolo[2,3-d]pyrimidin-4-ylamino]-ethyl}-acetamide], 138 to 140 °C; under `CC(=O)NCCNc1nc(-c2ccccc2)nc2[nH]c(C(=O)N3C[C@@H](C)N(CCCc4ccccc4)[C@@H](C)C3)cc12` [26.24, N-(2-{6-[cis-3,5-Dimethyl-4-(3-phenylpropyl)-piperazine-1-carbonyl]-2-phenyl-7H-pyrrolo[2,3-d]pyrimidin-4-ylamino}-ethyl)-acetamide], 86 to 89 °C.
